This data set can be described thus: Aqueous stability upon storage in aqueous solution, evaluated by HPLC. Type of data set: physicochemical. Here is the method:
The compound of Formula (IIIa):
[drawing 31] was selected as an exemplary compound for evaluation of aqueous stability. In particular, the aqueous stability of the compound of Formula (Ma) upon storage in aqueous solution at several temperatures for several weeks was evaluated by HPLC using the following conditions: Column: BioWidePore C18 (SUPELCO), 4.6 mm×25 cm, 5 μm Mobile Phase A: 0.1% (V/V) trifluoroacetic acid (TFA) in di-water, 0.8 micron filtered Mobile Phase B: 100% acetonitrile, 0.8 micron filtered Column temp: Ambient Injection volume: 30 μL UV Detection: 214 nm Flow: 1.0 mL/min Run time: 25 minutes Sample diluent: 50% acetonitrile in di-water Gradient condition: See Table 1

As for `CCCCC[C@H](O)c1ccc(N2C(=O)CC[C@@H]2CCCc2ccc(C(=O)OC[C@@H](O)CO)s2)cc1` [Formula (IIIa), (S)-2,3-dihydroxypropyl 5-(3-((S)-1-(4-((S)-1-hydroxyhexyl)phenyl)-5-oxopyrrolidin-2-yl)propyl)thiophene-2-carboxylate], the “% Recovery vs. T0” value is, setting by setting: (storage 25° C., T0) 100.0%; (storage 25° C., Week-1) 100.8%; (storage 25° C., Week-2) 100.4%; (storage 25° C., Week-4) 102.6%; (storage 40° C., T0) 100.0%; (storage 40° C., Week-1) 100.6%. Besides, the “% Recovery vs. T0” value came to 99.8% (storage 40° C., Week-2); 101.8% (storage 40° C., Week-4); 100.0% (storage 60° C., T0); 99.0% (storage 60° C., Week-1); 97.4% (storage 60° C., Week-2); 96.3% (storage 60° C., Week-4).

On to `O=C(OC[C@@H](O)CO)c1ccc(CCC[C@@H]2[C@@H](CCc3cc(Cl)cc(Cl)c3)[C@H](O)C[C@H]2Cl)s1` [Standard], for which the “% Recovery vs. T0” value came to 100.0% (storage 25° C., T0); 100.1% (storage 25° C., Week-1); 101.0% (storage 25° C., Week-2); 101.6% (storage 25° C., Week-4); 100.0% (storage 40° C., T0); 100.1% (storage 40° C., Week-1). Also, the “% Recovery vs. T0” value reads like this: (storage 40° C., Week-2) 100.1%; (storage 40° C., Week-4) 98.6%; (storage 60° C., T0) 100.0%; (storage 60° C., Week-1) 99.3%; (storage 60° C., Week-2) 97.5%; (storage 60° C., Week-4) 95.6%.

The values above are taken from patent publication US10329284B2, “Ester prodrugs of gamma-lactams and their use” (ALLERGAN, INC., priority 2014, dated 2019).
